From patent publication US10421755B2, “Salts of aza-bicyclic di-aryl ethers and methods to make them or their precursors” (Novartis AG, priority 2011, dated 2019)

Tested on: mice
Assay: Social Recognition Test in mice
Type: in vivo
Settings: oral, dose 0.3 mg/kg, familiar partner at 24 h vs time 0
Procedure: Assay: Social interactions between two experimental animals are influenced by their degree of familiarity: the better they know each other, the less time they spend on mutual scrutiny at each meeting. […] Memory enhancing agents (i.e. oxiracetam) facilitate learning to the extent that the previously met (familiar) partner is still remembered after 24 h, whereas in vehicle treated control animals the memory usually fades after less than 1 hour (Thor and Holloway, 1982) or after 2-3 hours.
Baseline-test: Pairs consisting of one adult and one young mouse were assigned at random to the experimental and control groups. In each pair only the adult mouse was orally treated 1 hour before the trial with either vehicle or the test compound. The duration of active contacts of the adult mouse with the young mouse was manually recorded over a period of 3 min, including the following behavioural, approach-related items: sniffing, nosing, grooming, licking, pawing and playing, anogenital exploration and orientation toward the young mouse; orientation, thereby, was defined as tip of nose of the adult mouse less than approximately 1 cm distant from the young mouse's body. […]

SMILES: Cc1ccc(-c2ccc(O[C@H]3CN4CCC3CC4)cn2)cc1 [Compound A, (R)-3-(6-(4-methylphenyl)-pyridin-3-yloxy)-1-aza-bicyclo[2.2.2]octane]
- Reduction in time scrutinizing in % ± SEM at 24 h: 36 ± 6%
